{
  "source": "patent US20090042869A1",
  "about": "“SIGNAL-DEPENDENT SPLICING OF TISSUE FACTOR PRE-mRNA IN [sequence] CELLS” (UNIVERSITY OF UTAH RESEARCH FOUNDATION, priority 2007, published 2009)",
  "key": {"[1]": {"system": "activated platelets", "experiment": "TF-dependent procoagulant activity (Actichrome TF assay)", "format": "cell-based, human", "conditions": "stimulated platelets (fibrinogen + thrombin)", "source_text": "(§1) CD34+ stem cells were isolated from human umbilical cord blood and were differentiated into megakaryocytes that produce proplatelets using methods that we have previously described^18. Leukocyte-depleted human platelets were isolated from healthy volunteers using previously described methods^18,29. For all of the platelet studies, residual leukocytes were removed from the washed preparations by CD45+ bead selection as previously described^1. […] Platelets were resuspended in M199 serum-free culture medium^1,2. Platelets were left quiescent or allowed to adhere to immobilized human fibrinogen (Calbiochem) in the presence of thrombin (0.05 U/ml; Sigma-Aldrich). Select studies were also conducted with suspended platelets that were activated with ADP, collagen, or thrombin. […] For translational inhibition, platelets were isolated and preincubated for 2 h in the presence of vehicle (water) or puromycin as previously described^2.\nTF-dependent procoagulant activity was calculated with an Actichrome TF assay (American Diagnostica) as previously described^13. […] Intact cellular membranes and microparticles were immediately placed in 25 μl of kit assay buffer and TF-dependent procoagulant activity was calculated. […]"}, "[2]": {"target": "Clk1 (Homo sapiens, UniProt P49759)", "sequence (P49759 whole entry)": "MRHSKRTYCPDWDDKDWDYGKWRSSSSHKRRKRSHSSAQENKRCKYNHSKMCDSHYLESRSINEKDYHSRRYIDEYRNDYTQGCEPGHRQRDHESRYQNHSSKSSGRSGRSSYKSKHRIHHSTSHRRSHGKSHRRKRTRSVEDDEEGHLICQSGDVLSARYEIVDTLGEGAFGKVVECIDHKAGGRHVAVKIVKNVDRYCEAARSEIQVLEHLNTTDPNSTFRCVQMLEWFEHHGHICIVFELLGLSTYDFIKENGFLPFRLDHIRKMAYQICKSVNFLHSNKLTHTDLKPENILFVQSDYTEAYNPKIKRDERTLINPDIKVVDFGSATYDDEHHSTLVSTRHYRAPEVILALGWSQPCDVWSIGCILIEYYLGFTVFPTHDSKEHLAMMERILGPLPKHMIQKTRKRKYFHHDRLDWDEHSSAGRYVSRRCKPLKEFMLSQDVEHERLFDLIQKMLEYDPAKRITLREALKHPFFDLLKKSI", "experiment": "Immune complex kinase assay for Clk1 activity in platelets (SF2/ASF substrate)", "format": "cell-based", "conditions": "stimulated platelets (fibrinogen + thrombin), pretreated; vs vehicle", "excerpt": "Leukocyte-depleted human platelets were isolated from healthy volunteers using previously described methods^18,29. For all of the platelet studies, residual leukocytes were removed from the washed preparations by CD45+ bead selection as previously described^1. […] Platelets were resuspended in M199 serum-free culture medium^1,2. Platelets were left quiescent or allowed to adhere to immobilized human fibrinogen (Calbiochem) in the presence of thrombin (0.05 U/ml; Sigma-Aldrich). […] For translational inhibition, platelets were isolated and preincubated for 2 h in the presence of vehicle (water) or puromycin as previously described^2.\nImmune complex kinase assay for Clk1 activity. Clk1 activity in platelets was determined using an immune complex kinase assay. […] Kinase assays were performed by addition of recombinant SF2/ASF (Protein One) in the presence of γ-[^32P]ATP (MP Biomedicals). At the end of this incubation period, the agarose beads and immune complexes were removed by centrifugation, and the unbound sample, which contained SF2/ASF, was resolved by SDS-PAGE."}, "[3]": {"system": "TF pre-mRNA", "experiment": "TF pre-mRNA splicing in activated platelets (PCR)", "format": "cell-based, human", "conditions": "platelets adherent to fibrinogen, coactivated with thrombin 2 h", "source_text": "as §1, with “described^2. For most of the TF pre-mRNA studies, primers that targeted sequences in exon four ([NT] ID NO: 1) and five ([NT] ID NO: 2), and thus spanned intron four, were used to determine endogenous splicing of TF pre-mRNA in platelets. Indirect in situ hybridization or direct in situ PCR was used to detect TF pre-mRNA in megakaryocytes and platelets as previously described^18. Primers that detected alternatively spliced human […] used as previously described^3. […]” for “described^2.”"}, "[4]": {"system": "TF protein", "experiment": "TF protein expression in platelets and platelet-derived microparticles (Western blot)", "format": "cell-based, human", "conditions": "activated platelets, 30 min or 4 h", "source_text": "as §1\nDetailed strategies for protein detection by flow cytometry, Western blot analysis, and immunocytochemistry have been previously published^18,29. A polyclonal antibody against human TF (pAb CL 20150A; Affinity Biologicals) was used under nonreducing conditions to detect TF protein by Western analysis. […] For the in situ experiments, polymerized actin was detected with Alexa fluor 488 phalloidin (Molecular Probes). […]"}, "[5]": {"system": "human plasma", "experiment": "Plasma clot formation with membranes from activated platelets", "format": "cell-based", "conditions": "membranes of platelets activated 5 min or 2 h", "method": "FIG. 5F illustrates clot formation in plasma that is incubated with membranes isolated from quiescent platelets or platelets activated with fibrinogen and thrombin for 5 min (left) or 2 h (right). The white bars represent activated platelets that were incubated with a neutralizing antibody directed against tissue factor (Anti-TF). The data in FIGS. 5D, 5E, an 5F represent the mean±SEM of six independent experiments.\nFIG. 8B is a western blot analysis showing TF protein expression in platelets and platelet-derived microparticles. […] Recombinant TF was used as a positive control. FIG. 8C depicts TF-dependent procoagulant activity in freshly isolated platelets or platelets activated, as in FIG. 2B, in the presence or absence of the Clk inhibitor. […] A single asterisk (*) indicates a statistically significant difference (P<0.05) in TF-dependent procoagulant activity between freshly isolated (baseline) and activated platelets; the double asterisk (**) represents a significant difference (P<0.05) between activated platelets under untreated or treated conditions. […] The activated platelets were pretreated with either the Clk inhibitor (Clk Inh) or DMSO. The data represent the mean±SEM of five independent experiments. […]\nTherefore, the affect of platelet-derived TF on plasma clotting times was determined. […]"}, "[6]": {"system": "platelets", "experiment": "Other platelet functional responses (immunocytochemistry)", "format": "cell-based, human", "conditions": "fibrinogen + thrombin, 1 h", "method": "After 1 h, the cells were prepared for immunocytochemical detection (red staining) of Clk1 (top) or β-tubulin (bottom). The green stain in each panel identifies polymerized actin.\nDetailed strategies for protein detection by flow cytometry, Western blot analysis, and immunocytochemistry have been previously published^18,29. A polyclonal antibody against human TF (pAb CL 20150A; Affinity Biologicals) was used under nonreducing conditions to detect TF protein by Western analysis. Antibodies directed against TF (mAb 550252; BD Biosciences), Clk family members (Abgent), or β-tubulin (Sigma-Aldrich) were used for immunocytochemical studies. For the in situ experiments, polymerized actin was detected with Alexa fluor 488 phalloidin (Molecular Probes). Specificity was confirmed by parallel studies with nonimmune IgG or deletion of the primary antibody. Detailed strategies for protein detection by Western analysis and immunocytochemistry have been previously published^1,2. Flow cytometric analysis of surface-expressed CD14, CD45, and CD162 (PSGL-1) was performed on washed platelet preparations before and after CD45 depletion, on CD45 positively selected cells, and on purified monocytes (FIG. 1)."}, "[7]": {"target": "mClk3 (Mus musculus, UniProt O35492)", "sequence (O35492 whole entry)": "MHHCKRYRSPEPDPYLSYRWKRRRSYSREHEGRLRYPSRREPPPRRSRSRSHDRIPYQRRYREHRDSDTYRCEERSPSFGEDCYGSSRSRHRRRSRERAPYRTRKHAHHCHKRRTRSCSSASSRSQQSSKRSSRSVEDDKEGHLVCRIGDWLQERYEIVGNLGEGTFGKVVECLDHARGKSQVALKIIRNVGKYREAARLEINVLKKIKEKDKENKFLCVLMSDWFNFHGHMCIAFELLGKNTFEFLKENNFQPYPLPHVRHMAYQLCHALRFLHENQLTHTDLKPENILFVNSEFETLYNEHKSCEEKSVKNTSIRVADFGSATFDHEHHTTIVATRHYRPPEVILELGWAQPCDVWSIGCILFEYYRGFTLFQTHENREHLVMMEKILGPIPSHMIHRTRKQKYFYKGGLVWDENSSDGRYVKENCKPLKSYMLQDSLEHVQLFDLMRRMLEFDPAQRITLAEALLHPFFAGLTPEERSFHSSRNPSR", "conditions": "cited from earlier work"}, "[8]": {"target": "SRPK1 (Homo sapiens, UniProt Q96SB4)", "sequence (Q96SB4 whole entry, species assumed)": "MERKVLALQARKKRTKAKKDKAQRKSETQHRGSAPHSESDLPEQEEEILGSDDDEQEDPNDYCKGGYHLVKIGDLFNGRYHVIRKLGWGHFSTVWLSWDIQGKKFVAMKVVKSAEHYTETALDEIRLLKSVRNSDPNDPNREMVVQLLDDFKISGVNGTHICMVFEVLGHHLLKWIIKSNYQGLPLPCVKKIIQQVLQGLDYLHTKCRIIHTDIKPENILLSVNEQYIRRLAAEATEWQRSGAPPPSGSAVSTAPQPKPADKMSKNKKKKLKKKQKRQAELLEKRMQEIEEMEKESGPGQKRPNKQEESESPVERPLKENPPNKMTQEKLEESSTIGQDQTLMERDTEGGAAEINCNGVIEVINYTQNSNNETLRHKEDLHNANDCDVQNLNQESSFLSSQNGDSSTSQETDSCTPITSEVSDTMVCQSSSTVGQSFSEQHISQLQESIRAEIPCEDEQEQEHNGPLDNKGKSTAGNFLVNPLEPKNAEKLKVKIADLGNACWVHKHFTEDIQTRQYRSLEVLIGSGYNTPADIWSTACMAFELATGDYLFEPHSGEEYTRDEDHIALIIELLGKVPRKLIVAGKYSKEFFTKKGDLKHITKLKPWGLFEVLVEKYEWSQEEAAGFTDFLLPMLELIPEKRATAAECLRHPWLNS", "conditions": "at concentrations up to 1 μM; cited from earlier work"}, "[9]": {"target": "SRPK2 (Homo sapiens, UniProt P78362)", "sequence (P78362 whole entry, species assumed)": "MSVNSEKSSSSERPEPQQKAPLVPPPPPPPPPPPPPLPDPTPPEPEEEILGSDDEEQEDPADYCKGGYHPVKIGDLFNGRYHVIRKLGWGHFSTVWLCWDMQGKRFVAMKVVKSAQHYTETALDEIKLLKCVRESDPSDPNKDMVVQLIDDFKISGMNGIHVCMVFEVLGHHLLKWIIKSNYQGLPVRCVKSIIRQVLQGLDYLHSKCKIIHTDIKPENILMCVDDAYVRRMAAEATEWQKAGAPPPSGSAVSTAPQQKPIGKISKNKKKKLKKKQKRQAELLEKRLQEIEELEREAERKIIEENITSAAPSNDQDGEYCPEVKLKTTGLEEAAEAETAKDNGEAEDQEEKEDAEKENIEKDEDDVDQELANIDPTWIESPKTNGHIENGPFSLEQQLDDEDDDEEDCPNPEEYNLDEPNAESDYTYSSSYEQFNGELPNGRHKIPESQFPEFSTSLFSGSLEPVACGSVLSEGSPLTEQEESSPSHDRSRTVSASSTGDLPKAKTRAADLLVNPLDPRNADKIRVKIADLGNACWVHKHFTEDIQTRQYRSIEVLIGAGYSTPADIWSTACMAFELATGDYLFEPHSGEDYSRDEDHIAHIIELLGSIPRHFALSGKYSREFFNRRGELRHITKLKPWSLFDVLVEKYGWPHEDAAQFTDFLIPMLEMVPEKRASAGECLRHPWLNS", "conditions": "at concentrations up to 1 μM; cited from earlier work"}, "[10]": {"system": "PKA", "conditions": "at concentrations up to 1 μM; cited from earlier work"}, "[11]": {"system": "PKC", "conditions": "at concentrations up to 1 μM; cited from earlier work"}, "[12]": {"system": "TF pre-mRNA", "experiment": "TF pre-mRNA splicing in platelets of subjects receiving medication", "format": "in vivo, human", "conditions": "for signal-dependent TF pre-mRNA splicing: in the elderly; for impact on TF pre-mRNA splicing: subjects receiving the drug"}, "[13]": {"system": "IL-1β pre-mRNA", "experiment": "IL-1β pre-mRNA splicing in platelets of subjects receiving medication", "format": "in vivo, human", "conditions": "in young subjects"}},
  "data": [
    {"molecule": "COc1ccc(C[C@H](N)C(=O)N[C@H]2[C@@H](O)[C@H](n3cnc4c(N(C)C)ncnc43)O[C@@H]2CO)cc1", "note": "[Puromycin]", "values": [
      {"measurement": "TF-dependent procoagulant activity", "setting": "[1]", "result": "significantly (P<0.05) reduced"}
    ]},
    {"molecule": "CCN1/C(=C/C(C)=O)Sc2ccc(OC)cc21", "note": "[Tg003, (Z)-1-(3-Ethyl-5-methoxy-2,3-dihydrobenzothiazol-2-ylidene)propan-2-one]", "values": [
      {"measurement": "Clk1-dependent SF2/ASF phosphorylation", "setting": "[2]", "result": "suppressed"},
      {"measurement": "processing of TF pre-mRNA", "setting": "[3]", "result": "prevented"},
      {"measurement": "expression of TF protein", "setting": "[4]", "result": "blocked"},
      {"measurement": "TF-dependent procoagulant activity", "setting": "[1]", "result": "significantly (P<0.05) reduced"},
      {"measurement": "onset of plasma clot formation", "setting": "[5]", "result": "delayed"},
      {"measurement": "other platelet functional responses (adherence and spreading, actin polymerization, tubulin organization, Clk1 redistribution)", "setting": "[6]", "result": "no effect"},
      {"measurement": "IC50", "setting": "[7]", "result": "> 10", "unit": "µM"},
      {"measurement": "effect on activity of SRPK1", "setting": "[8]", "result": "does not affect"},
      {"measurement": "effect on activity of SRPK2", "setting": "[9]", "result": "does not affect"},
      {"measurement": "effect on activity of PKA", "setting": "[10]", "result": "does not affect"},
      {"measurement": "effect on activity of PKC", "setting": "[11]", "result": "does not affect"}
    ]},
    {"molecule": "CC(=O)Oc1ccccc1C(=O)O", "note": "[aspirin]", "values": [
      {"measurement": "signal-dependent TF pre-mRNA splicing", "setting": "[12]", "result": "do not block"},
      {"measurement": "impact on TF pre-mRNA splicing", "setting": "[12]", "result": "do not appear to have a significant impact"},
      {"measurement": "IL-1β pre-mRNA splicing", "setting": "[13]", "result": "do not block"}
    ]},
    {"molecule": "heparin", "values": [
      {"measurement": "signal-dependent TF pre-mRNA splicing", "setting": "[12]", "result": "do not block"},
      {"measurement": "impact on TF pre-mRNA splicing", "setting": "[12]", "result": "do not appear to have a significant impact"},
      {"measurement": "IL-1β pre-mRNA splicing", "setting": "[13]", "result": "do not block"}
    ]}
  ]
}
